In data set [1] the test system is Mus musculus. In words: Neuroprotective activity in HdhQ140 knock-in mouse model assessed as rescue of mHTT-induced neuronal survival loss at 5 mg/kg, iv QD for 4 weeks by […] based immunostaining based analysis. Type of data set: functional, organism-based.
Data set [2] is described as follows: Neurotoxicity in wild type mouse assessed as effect on motor deficiency by measuring crossing time at 5 mg/kg, iv QD for 4 weeks by balance beam test. It counts as toxicity, organism-based. The following applies: in vivo, 672 h.
Data set [3] deals with Neuron. In words: Neuroprotective activity in neurons from HdhQ7/Q140 mouse assessed as rescue from mHTT-induced neuronal loss at 3 uM incubated for 48 hrs maintained in absence of growth factor N2 and B27 under starvation condition by immunostaining based analysis. It counts as functional, tissue-based.
A short description of data set [4]: Cytotoxicity against mouse STHdhQ7/111 cells assessed as cell viability at < 10 uM incubated for 48 hrs by cell titer glo luminescence based assay. Conditions: sthdhq7/111, 48 h. In general terms: Cellular ATP, detected with luciferase, serves as a proxy for viable cell number.
Data set [5] has as its target G-protein coupled receptor 52 (Mus musculus) (UniProt P0C5J4). Kind of data set: In vivo antagonist activity at GPR52 in HdhQ140 knock-in mouse model assessed as reduction in mHTT levels in cortex at 0.5 mM, icv QD for 3 weeks by TR-FRET analysis. Type of data set: functional. In general terms: Time-resolved FRET reads energy transfer from a long-lived donor to a nearby acceptor.

For data set [6] the target is unchanged. Kind of data set: Antagonist activity at GPR52 in mouse STHdhQ7/111 cells assessed as decrease in wild type HTT levels at 1 to 10 uM incubated for 48 hrs in presence of 2B7-terbium and 2166-D2 antibodies by western blot analysis. It counts as cell-based. The following applies: filed as antagonist, dose 1-10 µM. On the technique in general: A western blot detects proteins with antibodies after separation by electrophoresis.

The subject of data set [7] is Neuron. In words: Neuroprotective activity in neurons from HdhQ7/Q140 mouse assessed as rescue from mHTT-induced neuronal loss by measuring reduction in caspase 3 activity at 3 uM incubated for 48 hrs maintained in absence of growth factor N2 and B27 under starvation condition by green fluorescent dye based assay. Type of data set: functional, tissue-based.
The target in data set [8] is G-protein coupled receptor 52 (Mus musculus) (UniProt P0C5J4). Kind of data set: In vivo antagonist activity at GPR52 in wild type mouse model assessed as reduction in mHTT aggregate levels in cortex in presence of 4C9 antibody labelled with D2 fluorophore at 5 mg/kg, iv QD for 4 weeks by TR-FRET analysis. Type of data set: functional, organism-based.
The target is the same in data set [9]. In words: Antagonist activity at GPR52 in neurons from HdhQ7/Q140 mouse assessed as decrease in mHTT levels at 0.3 to 3 uM incubated for 48 hrs in presence of 2B7-terbium and 2166-D2 antibodies by western blot analysis. Conditions: Neuron, filed as antagonist, dose 0.3-3 µM.
For data set [10] the target is unchanged. Kind of data set: In vivo antagonist activity at GPR52 in wild type mouse model assessed as reduction in soluble mHTT levels at 5 mg/kg, iv QD for 4 weeks by TR-FRET analysis. Type of data set: functional, organism-based.
For data set [11] the target is unchanged. In words: In vivo antagonist activity at GPR52 in wild type mouse model assessed as reduction in mHTT aggregate levels in striatum in presence of 4C9 antibody labelled with terbium at 5 mg/kg, iv QD for 4 weeks by TR-FRET analysis. It counts as functional, organism-based.
Data set [12] shares this target. Kind of data set: Antagonist activity at GPR52 in neurons from HdhQ7/Q140 mouse assessed as decrease in wild type HTT levels at 0.3 to 3 uM incubated for 48 hrs in presence of 2B7-terbium and 2166-D2 antibodies by western blot analysis. It counts as tissue-based. Conditions: Neuron, filed as antagonist, dose 0.3-3 µM.
Data set [13] in a line: Neurotoxicity in wild type mouse assessed as motor deficiency by measuring latency to fall at 5 mg/kg, iv QD for 4 weeks by rotarod test. It counts as toxicity, organism-based. The following applies: in vivo, 672 h.
The target of data set [14] is G-protein coupled receptor 52 (Mus musculus) (UniProt P0C5J4). Kind of data set: Antagonist activity at GPR52 in neurons from HdhQ7/Q140 mouse assessed as decrease in wild type HTT levels at 0.1 to 3 uM incubated for 48 hrs in presence of 2B7-terbium and 2166-D2 antibodies by TR-FRET analysis. It counts as tissue-based. Conditions: Neuron, filed as antagonist, dose 0.1-3 µM.

Data set [15] shares this target. Kind of data set: Antagonist activity at GPR52 in mouse STHdhQ7/111 cells assessed as decrease in mHTT levels at 1 to 10 uM incubated for 48 hrs in presence of 2B7-terbium and 2166-D2 antibodies by western blot analysis. It counts as cell-based. Conditions: filed as antagonist, dose 1-10 µM.
The test system of data set [16] is STHdhQ7/111. In words: Decrease in mHTT level in GPR52 knockdown mouse STHdhQ7/111 cells with at 1 to 10 uM incubated for 48 hrs in presence of 2B7-terbium and 2166-D2 antibodies by TR-FRET analysis. The following applies: dose 1-10 µM. It counts as functional, cell-based.
For data set [17], the system named is Mus musculus. Kind of data set: Neuroprotective activity in HdhQ140 mouse model assessed as latency to fall at 5 mg/kg, iv QD for 4 weeks by rotarod test. Type of data set: functional, organism-based.
Data set [18] is described as follows: Drug uptake in wild type mouse brain at 5 mg/kg, iv measured 0.5 to 6 hrs. Conditions: in vivo, time 0.5-6 hrs, read-out: Drug uptake. Type of data set: ADME, organism-based.
In data set [19] the target is Glucagon-like peptide 1 receptor (Homo sapiens) (UniProt P43220). Kind of data set: Antagonist activity at GLP-1R (unknown origin) expressed in HEK293 cells assessed as inhibition of GLP1-induced cAMP accumulation. It counts as functional, cell-based.
In data set [20] the test system is Mus musculus. In words: Neuroprotective activity in HdhQ140 mouse model assessed as rescue of motor deficiency by measuring crossing time at 5 mg/kg, iv QD for 4 weeks by balance beam test. It counts as functional, organism-based.
The target of data set [21] is G-protein coupled receptor 52 (Mus musculus) (UniProt P0C5J4). Kind of data set: Antagonist activity at GPR52 in neurons from HdhQ7/Q140 mouse assessed as decrease in mHTT levels at 0.1 to 3 uM incubated for 48 hrs in presence of 2B7-terbium and 2166-D2 antibodies by TR-FRET analysis. It counts as tissue-based. The following applies: Neuron, filed as antagonist, dose 0.1-3 µM.

The target in data set [22] is C-C chemokine receptor type 5 (Homo sapiens) (UniProt P51681). In words: Antagonist activity at CCR5 (unknown origin) expressed in HEK293 cells assessed as inhibition of […] cAMP accumulation. Type of data set: functional, cell-based.
The subject of data set [23] is STHdhQ7/111. In words: Decrease in wild type HTT level in GPR52 knockdown mouse STHdhQ7/111 cells with at 1 to 10 uM incubated for 48 hrs in presence of 2B7-terbium and 2166-D2 antibodies by TR-FRET analysis. Type of data set: functional, cell-based. Conditions: dose 1-10 µM.
For data set [24], the target named is G-protein coupled receptor 52 (Mus musculus) (UniProt P0C5J4). In words: In vivo antagonist activity at GPR52 in wild type mouse model assessed as reduction in wild type HTT levels at 0.5 mM, icv QD for 3 weeks by TR-FRET analysis. It counts as functional.

This passage reports Activity and concentration results from ChEMBL document CHEMBL4706623, “GPR52 Antagonist Reduces Huntingtin Levels and Ameliorates Huntington's Disease-Related Phenotypes” (J Med Chem, 2021).

Active and inactive are the calls of the source. The rule behind the calls is not given here.

Chain of G-protein coupled receptor 52 (Mus musculus) (P0C5J4 whole entry): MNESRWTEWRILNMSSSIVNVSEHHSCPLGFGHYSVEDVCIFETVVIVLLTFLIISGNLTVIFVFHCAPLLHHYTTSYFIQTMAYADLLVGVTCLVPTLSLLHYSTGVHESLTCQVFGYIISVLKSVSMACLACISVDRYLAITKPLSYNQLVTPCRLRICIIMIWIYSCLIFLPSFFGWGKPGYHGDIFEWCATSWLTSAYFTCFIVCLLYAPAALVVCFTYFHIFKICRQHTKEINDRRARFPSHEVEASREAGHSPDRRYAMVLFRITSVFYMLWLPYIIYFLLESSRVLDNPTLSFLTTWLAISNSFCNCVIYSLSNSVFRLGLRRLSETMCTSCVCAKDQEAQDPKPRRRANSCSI
Chain of C-C chemokine receptor type 5 (Homo sapiens) (P51681 whole entry, looked up): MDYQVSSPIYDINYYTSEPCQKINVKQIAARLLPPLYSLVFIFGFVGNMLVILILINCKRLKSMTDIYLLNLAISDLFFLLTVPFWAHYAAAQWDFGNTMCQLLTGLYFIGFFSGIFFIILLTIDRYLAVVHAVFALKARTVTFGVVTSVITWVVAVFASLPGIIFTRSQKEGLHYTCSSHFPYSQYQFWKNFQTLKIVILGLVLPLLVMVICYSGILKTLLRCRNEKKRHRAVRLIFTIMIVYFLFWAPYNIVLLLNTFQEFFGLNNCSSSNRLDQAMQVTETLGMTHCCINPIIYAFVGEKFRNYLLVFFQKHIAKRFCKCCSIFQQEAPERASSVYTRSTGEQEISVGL
Chain of Glucagon-like peptide 1 receptor (Homo sapiens) (P43220 whole entry): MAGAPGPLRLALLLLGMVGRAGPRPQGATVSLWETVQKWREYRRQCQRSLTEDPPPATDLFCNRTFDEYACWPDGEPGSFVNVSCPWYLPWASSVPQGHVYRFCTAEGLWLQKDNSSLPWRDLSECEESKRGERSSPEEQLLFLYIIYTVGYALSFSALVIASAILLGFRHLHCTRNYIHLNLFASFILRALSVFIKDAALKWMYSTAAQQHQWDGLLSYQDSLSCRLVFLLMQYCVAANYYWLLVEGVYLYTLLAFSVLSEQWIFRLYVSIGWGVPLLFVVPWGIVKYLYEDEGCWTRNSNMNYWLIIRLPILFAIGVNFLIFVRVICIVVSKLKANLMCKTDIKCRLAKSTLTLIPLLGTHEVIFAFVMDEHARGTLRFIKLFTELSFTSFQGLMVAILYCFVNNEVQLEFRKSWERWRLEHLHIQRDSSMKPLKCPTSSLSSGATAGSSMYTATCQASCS

As for `O=C(/C=C/CCc1ccccc1)c1ccco1`, the outcome (in the data set with Mus musculus [1]; in the data set with Neuron [3]; in [6]; in the data set on Neuron [7]; in data set [9]; in [12]) was Active. The result (in data set [14]; in data set [15]; in the data set with Mus musculus [17]; in the data set on Mus musculus [20]; in data set [21]) was Active. Further, the Activity entry in data set [2], in data set [4] and in data set [13] was “Non-Toxic” throughout. Further, the result (in [5]; in data set [8]; in data set [10]; in data set [11]; with STHdhQ7/111 [16]; in data set [19]) was inactive. Also, the result (in [22]; in the data set on STHdhQ7/111 [23]; in [24]) was inactive. Further, the concentration in data set [18] was found to be 20 nM.
